Three compounds from ChEMBL document CHEMBL3576781, “Substituted Bis-THF Protease Inhibitors with Improved Potency against Highly Resistant Mature HIV-1 Protease PR20” (J Med Chem, 2015) can be followed below.

The source made the active and inactive calls. No cut-off for these calls is given here.

Assay [1] can be described thus: Binding affinity to HIV1 protease PR20 mutant expressed in Escherichia coli BL21 (DE3) assessed as ligand dissociation constant by ITC method. Details: species or system Human immunodeficiency virus 1.
Assay [2] has as its target Protease (Human immunodeficiency virus 1, UniProt Q9YQ12). The experiment in a line: Inhibition of wild type HIV1 protease.
Assay [3] relates to Human immunodeficiency virus 1. Description: Antiviral activity against HIV1 LAI infected in human MT2 cells by MTT assay. The settings on record: Human immunodeficiency virus 1, LAI. Type of assay: functional, organism-based.
Assay [4] in a line: Inhibition of HIV1 protease PR20 mutant expressed in Escherichia coli BL21 (DE3) incubated for 5 mins followed by Abz-Thr-Ile-Nle-p-nitro-Phe-GlnArg-NH2 substrate addition and measured over 5 mins by microplate reader based assay. The arrangement: species or system Human immunodeficiency virus 1.
Assay [5] relates to Human immunodeficiency virus 1. Description: Inhibition of N-terminal autoprocessing of transframe region-comprising HIV1 protease PR20 mutant precursor up to 100 uM by SDS-PAGE method.
Assay [6] relates to Human immunodeficiency virus 1. The experiment in a line: Antiviral activity against HIV1 by cell based MTT assay. The assay is classed as functional, organism-based.

Protease, sequence (Q9YQ12 whole entry): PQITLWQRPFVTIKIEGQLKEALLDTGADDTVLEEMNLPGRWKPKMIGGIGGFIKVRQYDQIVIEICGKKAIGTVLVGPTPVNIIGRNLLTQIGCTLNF

In the case of `CC(C)CN(C[C@@H](O)[C@H](Cc1ccccc1)NC(=O)O[C@H]1CO[C@H]2OCC[C@H]21)S(=O)(=O)c1ccc(N)cc1`, in assay [1], the Kd was determined as 41 nM.

As for `CC(C)CN(C[C@@H](O)[C@H](Cc1ccccc1)NC(=O)O[C@H]1CO[C@H]2OCC(F)(F)[C@H]21)S(=O)(=O)c1ccc(N)cc1`, the Ki in assay [2] turned out to be 0.0058 nM; in assay [4], 1.7 nM. This compound also displayed an EC50 in assay [3] of 3 nM. Besides, the inhibition result in assay [5] was “inactive”.

In assay [6], `COc1ccc(S(=O)(=O)N(CC(C)C)C[C@@H](O)[C@H](Cc2ccccc2)NC(=O)O[C@H]2CO[C@H]3OC[C@H](OC)[C@H]32)cc1` yielded an IC50 of 2.4 nM. The Ki in assay [2] came to 0.0029 nM; in assay [4], 4.3 nM. The inhibition entry in assay [5] is “inactive”.
